From patent US20160009693A1, “HERBICIDAL COMPOUNDS” (SYNGENTA LIMITED, priority 2013, published 2016)

Columns and labels:
Type in all cases: in vivo
Conditions in all cases: applied at 1000 g/h, evaluated after 13 days
[1] = system: Alopecurus myosuroides (ALOMY); assay: Herbicidal glasshouse test, pre-emergence, ALOMY
Setaria faberi (SETFA) [2] = assay: Herbicidal glasshouse test, pre-emergence, SETFA
[3] = system: Echinochloa crus-galli (ECHCG); assay: Herbicidal glasshouse test, pre-emergence, ECHCG
How it was run: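 In this pre-emergence glasshouse test, ECHCG seeds sown in pots of standard soil were sprayed one day after sowing with the test material in acetone/water (50:50) containing 0.5% Tween 20. Plants were kept at 24/16° C., 14 hours light, 65% humidity, and watered twice daily. Percentage damage was rated after 13 days on a 1–5 scale.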

Solanum nigrum (SOLNI) [4] = assay: Herbicidal glasshouse test, pre-emergence, SOLNI
How it was run: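 This pre-emergence glasshouse herbicide test used Solanum nigrum sown in standard soil. One day after sowing, pots were sprayed with the compound in acetone/water (50:50) with 0.5% Tween 20. They were then grown at 24/16° C., with 14 hours light and 65% humidity, and watered twice daily. Percentage damage was scored after 13 days on a five point scale, where 5=80-100% and 1=0-19%.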

[5] = system: Amaranthus retoflexus (AMARE); assay: Herbicidal glasshouse test, pre-emergence, AMARE
How it was run: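 This pre-emergence glasshouse herbicide test used Amaranthus retoflexus sown in standard soil. After one day of cultivation, an aqueous spray made from the technical ingredient in 50:50 acetone/water with 0.5% Tween 20 was applied. Pots stayed at 24/16° C., 14 hours light, 65% humidity, with twice-daily watering. Damage was rated on a five point scale (1=0-19% up to 5=80-100%).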

[6] = system: Ipomoea hederacea (IPOHE); assay: Herbicidal glasshouse test, pre-emergence, IPOHE
[7] = system: Alopecurus myosuroides (ALOMY); assay: Herbicidal glasshouse test, post-emergence, ALOMY
Setaria faberi (SETFA) [8] = assay: Herbicidal glasshouse test, post-emergence, SETFA
How it was run: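 This post-emergence glasshouse herbicide test used potted Setaria faberi. Plants were cultivated for 8 days under controlled conditions (24/16° C. day/night, 14 hours light, 65% humidity) and then treated with an aqueous spray made from an acetone/water (50:50) solution containing 0.5% Tween 20. After 13 days of further growth with twice-daily watering, damage was rated on a five point scale (5=80-100%; 1=0-19%).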

[9] = system: Echinochloa crus-galli (ECHCG); assay: Herbicidal glasshouse test, post-emergence, ECHCG
How it was run: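 In this post-emergence glasshouse test, barnyard grass (ECHCG) was cultivated for 8 days under controlled conditions (24/16° C. day/night, 14 hours light, 65% humidity). It was then sprayed with an aqueous solution of the technical compound in acetone / water (50:50) with 0.5% Tween 20. Plants were kept under the same conditions and watered twice daily. After 13 days, percentage damage was rated on a five point scale (5=80-100%; 1=0-19%).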

Solanum nigrum (SOLNI) [10] = assay: Herbicidal glasshouse test, post-emergence, SOLNI
[11] = system: Amaranthus retoflexus (AMARE); assay: Herbicidal glasshouse test, post-emergence, AMARE
How it was run: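 This post-emergence glasshouse test used AMARE plants raised in standard soil for 8 days under controlled conditions (24/16° C. day/night, 14 hours light, 65% humidity). Foliage was sprayed with formulated compound in acetone/water (50:50) containing 0.5% Tween 20. Plants were then watered twice daily, and after 13 days percentage damage was rated on a five point scale.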

[12] = system: Ipomoea hederacea (IPOHE); assay: Herbicidal glasshouse test, post-emergence, IPOHE

Row | SMILES | PRE Application ALOMY, percentage damage (five point scale) [1] | PRE Application SETFA, percentage damage (five point scale) (Setaria faberi (SETFA) [2]) | PRE Application ECHCG, percentage damage (five point scale) [3] | PRE Application SOLNI, percentage damage (five point scale) (Solanum nigrum (SOLNI) [4]) | PRE Application AMARE, percentage damage (five point scale) [5] | PRE Application IPOHE, percentage damage (five point scale) [6] | POST Application ALOMY, percentage damage (five point scale) [7] | POST Application SETFA, percentage damage (five point scale) (Setaria faberi (SETFA) [8]) | POST Application ECHCG, percentage damage (five point scale) [9] | POST Application SOLNI, percentage damage (five point scale) (Solanum nigrum (SOLNI) [10]) | POST Application AMARE, percentage damage (five point scale) [11] | POST Application IPOHE, percentage damage (five point scale) [12]
1 | Cn1nnnc1NC(=O)c1nn(C)c(=O)n(Cc2cccc(C#N)c2)c1=O [Compound 1.054] | 5 (5=80-100%) | 4 (4=60-79%) | 5 (5=80-100%) | 5 (5=80-100%) | 5 (5=80-100%) | 5 (5=80-100%) | 5 (5=80-100%) | 4 (4=60-79%) | 5 (5=80-100%) | 5 (5=80-100%) | 5 (5=80-100%) | 5 (5=80-100%)
2 | Cn1nnnc1NC(=O)c1nn(C)c(=O)n(Cc2ccc(F)cc2)c1=O [Compound 1.073] | 5 (5=80-100%) | 1 (1=0-19%) | 5 (5=80-100%) | 5 (5=80-100%) | 5 (5=80-100%) | 5 (5=80-100%) | 2 (2=20-39%) | 2 (2=20-39%) | 3 (3=40-59%) | 5 (5=80-100%) | 5 (5=80-100%) | 5 (5=80-100%)
3 | Cn1nnnc1NC(=O)c1nn(C)c(=O)n(-c2cc(F)c(F)c(F)c2)c1=O [Compound 1.044] | 5 (5=80-100%) | 5 (5=80-100%) | 5 (5=80-100%) | 5 (5=80-100%) | 5 (5=80-100%) | 5 (5=80-100%) | 5 (5=80-100%) | 5 (5=80-100%) | 5 (5=80-100%) | 5 (5=80-100%) | 5 (5=80-100%) | 5 (5=80-100%)
4 | Cn1nnnc1NC(=O)c1nn(C)c(=O)n(Cc2c(Cl)cccc2Cl)c1=O [Compound 1.072] | 5 (5=80-100%) | 2 (2=20-39%) | 5 (5=80-100%) | 5 (5=80-100%) | 5 (5=80-100%) | 3 (3=40-59%) | 4 (4=60-79%) | 4 (4=60-79%) | 4 (4=60-79%) | 5 (5=80-100%) | 5 (5=80-100%) | 4 (4=60-79%)
5 | CCn1nnnc1NC(=O)c1cn(C)c(=O)n(-c2cccc(F)c2)c1=O [Compound 4.003] | 2 (2=20-39%) | 1 (1=0-19%) | 1 (1=0-19%) | 4 (4=60-79%) | 5 (5=80-100%) | 3 (3=40-59%) | 2 (2=20-39%) | 1 (1=0-19%) | 1 (1=0-19%) | 5 (5=80-100%) | 5 (5=80-100%) | 2 (2=20-39%)
6 | C=CCn1nc(C(=O)Nc2nnnn2C)c(=O)n(Cc2cccc(F)c2)c1=O [Compound 1.014] | 3 (3=40-59%) | 1 (1=0-19%) | 5 (5=80-100%) | 5 (5=80-100%) | 5 (5=80-100%) | 5 (5=80-100%) | 2 (2=20-39%) | 5 (5=80-100%) | 4 (4=60-79%) | 5 (5=80-100%) | 5 (5=80-100%) | 5 (5=80-100%)
7 | CCCCn1c(=O)c(C(=O)Nc2nncn2C)nn(C)c1=O [Compound 6.003] | 1 (1=0-19%) | 5 (5=80-100%) | 4 (4=60-79%) | 5 (5=80-100%) | 5 (5=80-100%) | 5 (5=80-100%) | 3 (3=40-59%) | 2 (2=20-39%) | 1 (1=0-19%) | 4 (4=60-79%) | 5 (5=80-100%) | 5 (5=80-100%)
8 | Cn1nnnc1NC(=O)c1nn(C)c(=O)n(Cc2ccc(F)c(F)c2)c1=O [Compound 1.064] | 5 (5=80-100%) | 1 (1=0-19%) | 5 (5=80-100%) | 5 (5=80-100%) | 5 (5=80-100%) | 5 (5=80-100%) | 2 (2=20-39%) | 2 (2=20-39%) | 5 (5=80-100%) | 5 (5=80-100%) | 5 (5=80-100%) | 5 (5=80-100%)
9 | Cn1nnnc1NC(=O)c1nn(C)c(=O)n(-c2cccc(F)c2F)c1=O [Compound 1.003] | 5 (5=80-100%) | 5 (5=80-100%) | 5 (5=80-100%) | 5 (5=80-100%) | 5 (5=80-100%) | 5 (5=80-100%) | 5 (5=80-100%) | 5 (5=80-100%) | 5 (5=80-100%) | 5 (5=80-100%) | 5 (5=80-100%) | 5 (5=80-100%)
